In ChEMBL document CHEMBL1123809, “Amplification of bleomycin-mediated degradation of DNA” (J Med Chem, 1987):

Test system: Nucleic Acid
Assay: Activity against DNA binding in calf thymus was determined
Type: nucleic-acid assay
Details: Bos taurus

SMILES | K [M⁻¹]
CC[n+]1c(-c2ccccc2)c2cc(N)ccc2c2ccc(N)cc21 | 900000
CN(C)CCCN1C(=O)c2ccc3c4c(ccc(c24)C1=O)C(=O)N(CCCN(C)C)C3=O | > 1e+06
CN(C)CCSc1nccc(-c2ccc(-c3ccnc(SCCN(C)C)n3)s2)n1 | 1.3e+07
CN(C)CCSc1nccc(-c2cccs2)n1 | 18700
CN(C)CCNc1nccc(-c2cccs2)n1 | 4400
